The target in the first assay is T1, Recombinant human ATX (Homo sapiens, UniProt Q13822).
T1 construct: made in house; host or cells: human embryonic kidney (HEK) cells
The assay can be described thus: ATX inhibition assay (choline release, Amplex Red fluorescence). The format is biochemical.
Conditions: not given
As to the method:
Reagents—LPC (oleoyl (18:1)) was purchased from Avanti Polar Lipids (Alabaster, Ala.) and solubilized in methanol to 20 mM. Amplex Red was obtained from Invitrogen Life Technologies (Paisley, UK) and dissolved in DMSO to 10 mM. Choline oxidase and horseradish peroxidase (HRP) were obtained from Sigma Aldrich (Dorset, UK) and dissolved in HBSS to 20 U/ml and 200 U/ml respectively. All reagents were stored at −20° C. in single use aliquots. All experimental measurements were performed in assay buffer made up immediately prior to use (HBSS, 0.01% BSA essentially fatty acid free).
PerkinElmer EnVision (Fluorescence Intensity/Absorbance Monochromator) or Tecan Infinite 200 PRO series plate reader was used to detect change in fluorescent intensity.
Assessing ATX inhibition—ATX activity was determined by measurement of released choline in reactions containing ATX (10 nM), choline oxidase (0.1 U/ml), HRP (100 U/ml), amplex red (50 μM) and LPC 18:1 (10 μM). Compounds of the invention were prepared as 10 point serial dilutions from 1 μM in duplicate and pre-incubated with ATX at 37° C. for 20 minutes prior to the addition of remaining reagents. The liberated choline was measured from changes in fluorescence intensity (λex 530 nm, λem 590 nm) of the product resurofin at 37° C. every 2 minutes over a 40-minute period. ATX activity was measured as a slope of the linear portion of the progress curve, typically between 14 to 24 minutes.
Data analysis—Slope data was exported to Graphpad prism (Graphpad software, San Diego, Calif.) where data was fitted to equation 1.
Y=Bottom+(Top−Bottom)/(1+10̂((LogIC50−X)*HillSlope)) Equation 1: […]
Turning to `Cc1nnn(Cc2cc(C(F)(F)F)ccc2/C=C/C(=O)N(C)CCOc2ccccc2)n1` [Example 6.2, (E)-N-Methyl-3-(2-((5-methyl-2H-tetrazol-2-yl)methyl)-4-(trifluoromethyl)phenyl)-N-(2-phenoxyethyl)acrylamide], the 50% inhibitory concentration (IC50) was found to be 9 nM.

Staying with this assay, now noted: ATX 10 nM, LPC 18:1 10 μM, pre-incubated 20 minutes at 37° C.; mean of n≧2; read-out: IC50.
Turning to `Cc1nnn(Cc2cc(Cl)ccc2/C=C/C(=O)N(C)CC2CCN(C(=O)OC(C)(C)C)CC2)n1` [Example 1.1, (E)-tert-Butyl 4-((3-(4-chloro-2-((5-methyl-2H-tetrazol-2-yl)methyl)phenyl)-N-methylacrylamido)methyl)piperidine-1-carboxylate], the IC50 was 14 nM.

For `CCN(C(=O)/C=C/c1ccc(C(F)(F)F)cc1Cn1nnc(C)n1)C1CCN(C(=O)OC(C)(C)C)CC1` [Example 1.2, (E)-tert-Butyl-4-(N-ethyl-3-(2-((5-methyl-2H-tetrazol-2-yl)methyl)-4-(trifluoromethyl)phenyl)acrylamido)piperidine-1-carboxylate], the IC50 was found to be 20 nM.

`CCN(Cc1ccncc1)C(=O)/C=C/c1ccc(Cl)cc1Cn1nnc(C)n1` [Example 2.1, (E)-3-(4-Chloro-2-((5-methyl-2H-tetrazol-2-yl)methyl)phenyl)-N-ethyl-N-(pyridin-4-ylmethyl)acrylamide]: the IC50 came out at 64 nM.

As for `Cc1csc(CN(C)C(=O)/C=C/c2ccc(Cl)cc2Cn2nnc(C)n2)n1` [Example 2.2, (E)-3-(4-Chloro-2-((5-methyl-2H-tetrazol-2-yl)methyl)phenyl)-N-methyl-N-((4-methylthiazol-2-yl)methyl)acrylamide], the IC50 was 74 nM.

With `Cc1cc(CN(C)C(=O)/C=C/c2ccc(Cl)cc2Cn2nnc(C)n2)on1` [Example 2.3, (E)-3-(4-Chloro-2-((5-methyl-2H-tetrazol-2-yl)methyl)phenyl)-N-methyl-N-((3-methylisoxazol-5-yl)methyl)acrylamide], the IC50 worked out at 73 nM.

In the case of `CCN(CCOC)C(=O)/C=C/c1ccc(Cl)cc1Cn1nnc(C)n1` [Example 2.4, (E)-3-(4-Chloro-2-((5-methyl-2H-tetrazol-2-yl)methyl)phenyl)-N-ethyl-N-(2-methoxyethyl)acrylamide], the IC50 is 50 nM.

Regarding `CCN(CC(O)c1cccc(O)c1)C(=O)/C=C/c1ccc(Cl)cc1Cn1nnc(C)n1` (centres unmarked) [Example 2.5, (E)-3-(4-Chloro-2-((5-methyl-2H-tetrazol-2-yl)methyl)phenyl)-N-ethyl-N-(2-hydroxy-2-(3-hydroxyphenyl)ethyl)acrylamide], the IC50 stood at 94 nM.

With `Cc1nnn(Cc2cc(Cl)ccc2/C=C/C(=O)N(C)CC2CC(=O)N(C(C)(C)C)C2)n1` (centres unmarked) [Example 2.6, (E)-N-((1-(tert-Butyl)-5-oxopyrrolidin-3-yl)methyl)-3-(4-chloro-2-((5-methyl-2H-tetrazol-2-yl)methyl)phenyl)-N-methylacrylamide], the IC50 worked out at 52 nM.

For the compound `Cc1nnn(Cc2cc(Cl)ccc2/C=C/C(=O)N(C)CC2CCCO2)n1` (centres unmarked) [Example 2.7, (E)-3-(4-Chloro-2-((5-methyl-2H-tetrazol-2-yl)methyl)phenyl)-N-methyl-N-((tetrahydrofuran-2-yl)methyl)acrylamide], the half-inhibitory concentration (IC50) came out at 183 nM.

For `Cc1nnn(Cc2cc(C(F)(F)F)ccc2/C=C/C(=O)N(C)CC2CCN(C(=O)c3ccc(F)cc3)CC2)n1` [Example 3, (E)-N-((1-(4-Fluorobenzoyl)piperidin-4-yl)methyl)-N-methyl-3-(2-((5-methyl-2H-tetrazol-2-yl)methyl)-4-(trifluoromethyl)phenyl)acrylamide], the IC50 stood at 10 nM.

In the case of `Cc1nnn(Cc2cc(C(F)(F)F)ccc2/C=C/C(=O)N(C)CC2CCN(S(=O)(=O)C3CC3)CC2)n1` [Example 4.1, (E)-N-((1-(Cyclopropylsulfonyl)piperidin-4-yl)methyl)-N-methyl-3-(2-((5-methyl-2H-tetrazol-2-yl)methyl)-4-(trifluoromethyl)phenyl)acrylamide], the concentration for half-maximal inhibition (IC50) was 4.9 nM.

Turning to `Cc1ccc(S(=O)(=O)N2CCC(CN(C)C(=O)/C=C/c3ccc(C(F)(F)F)cc3Cn3nnc(C)n3)CC2)cc1` [Example 4.2, (E)-N-Methyl-3-(2-((5-methyl-2H-tetrazol-2-yl)methy)-4-(trifluoromethyl)phenyl)-N-((1-tosylpiperidin-4-yl)methyl)acrylamide], the IC50 turned out to be 4.5 nM.

As to `Cc1nnn(Cc2cc(C(F)(F)F)ccc2/C=C/C(=O)N(C)CC2CCN(Cc3ccc(F)cc3)CC2)n1` [Example 5, (E)-N-((1-(4-Fluorobenzyl)piperidin-4-yl)methyl)-N-methyl-3-(2-((5-methyl-2H-tetrazol-2-yl)methyl)-4-(trifluoromethyl)phenyl)acrylamide], the IC50 amounted to 13 nM.

Take `Cc1cc(CN(C)C(=O)/C=C/c2ccc(C(F)(F)F)cc2Cn2nnc(C)n2)n(C)n1` [Example 6.1, (E)-N-((1,3-Dimethyl-1H-pyrazol-5-yl)methyl)-N-methyl-3-(2-((5-methyl-2H-tetrazol-2-yl)methyl)-4-(trifluoromethyl)phenyl)acrylamide]: the IC50 stood at 6.9 nM.

`Cc1csc(CN(C)C(=O)/C=C/c2ccc(C(F)(F)F)cc2Cn2nnc(C)n2)n1` [Example 6.3, (E)-N-Methyl-3-(2-((5-methyl-2H-tetrazol-2-yl)methyl)-4-(trifluoromethyl)phenyl)-N-((4-methylthiazol-2-yl)methyl)acrylamide]: the IC50 was determined as 40 nM.

Take `Cc1nnn(Cc2cc(C(F)(F)F)ccc2/C=C/C(=O)N(C)Cc2nnc(-c3ccccc3)o2)n1` [Example 6.4, (E)-N-Methyl-3-(2-((5-methyl-2H-tetrazol-2-yl)methyl)-4-(trifluoromethyl)phenyl)-N-((5-phenyl-1,3,4-oxadiazol-2-yl)methyl)acrylamide]: the IC50 is 13 nM.

As to `COc1ccc(CNC(=O)CN(C)C(=O)/C=C/c2ccc(C(F)(F)F)cc2Cn2nnc(C)n2)cc1` [Example 6.5, (E)-N-(2-((4-Methoxybenzyl)amino)-2-oxoethyl)-N-methyl-3-(2-((5-methyl-2H-tetrazol-2-yl)methyl)-4-(trifluoromethyl)phenyl)acrylamide], the IC50 stood at 16 nM.

Take `Cc1nnn(Cc2cc(C(F)(F)F)ccc2/C=C/C(=O)N(C)CCCCc2cccnc2)n1` [Example 6.6, (E)-N-Methyl-3-(2-((5-methyl-2H-tetrazol-2-yl)methyl)-4-(trifluoromethyl)phenyl)-N-(4-(pyridin-3-yl)butyl)acrylamide]: the IC50 is 49 nM.

With `Cc1nnn(Cc2cc(C(F)(F)F)ccc2/C=C/C(=O)N(C)Cc2nc(-c3ccccc3)cs2)n1` [Example 6.7, (E)-N-Methyl-3-(2-((5-methyl-2H-tetrazol-2-yl)methyl)-4-(trifluoromethyl)phenyl)-N-((4-phenylthiazol-2-yl)methyl)acrylamide], the IC50 came to 6 nM.

Turning to `Cc1nnn(Cc2cc(C(F)(F)F)ccc2/C=C/C(=O)N(C)CC2CC(=O)N(C(C)(C)C)C2)n1` (centres unmarked) [Example 6.8, (E)-N-((1-(tert-Butyl)-5-oxopyrrolidin-3-yl)methyl)-N-methyl-3-(2-((5-methyl-2H-tetrazol-2-yl)methyl)-4-(trifluoromethyl)phenyl)acrylamide], the IC50 was 7 nM.

Consider `Cc1nnn(Cc2cc(C(F)(F)F)ccc2/C=C/C(=O)N(C)Cc2nc(-c3ccccc3)no2)n1` [Example 6.9, (E)-N-Methyl-3-(2-((5-methyl-2H-tetrazol-2-yl)methyl)-4-(trifluoromethyl)phenyl)-N-((3-phenyl-1,2,4-oxadiazol-5-yl)methyl)acrylamide], for which the IC50 was 5.3 nM.

On to `Cc1nnn(Cc2cc(C(F)(F)F)ccc2/C=C/C(=O)N(C)Cc2nc3ccccc3s2)n1` [Example 6.10, (E)-N-(Benzo[d]thiazol-2-ylmethyl)-N-methyl-3-(2-((5-methyl-2H-tetrazol-2-yl)methyl)-4-(trifluoromethyl)phenyl)acrylamide], for which the IC50 was determined as 12 nM.

As a reminder, the IC50 is the concentration needed to halve the response being measured.

The values above are taken from patent US20160168119A1, “AUTOTAXIN INHIBITORS” (Novartis AG, priority 2013, published 2016).
